Source: patent publication US6852673B2, “Herbicidal pyridine compounds” (BASF Aktiengesellschaft, priority 1998, dated 2005)

Legend:
Type in all cases: in vivo
Zea mays (ZEAMX) = experiment: Pre-emergence herbicidal evaluation, maize
Source text: (§1) The pre-emergence herbicidal activity of the compounds of the present invention is exemplified by the following test in which the seeds of a variety of monocotyledonous and dicotyledonous plants are seperately mixed with potting soil and planted on top of approximately one inch of soil in separate pots. After planting, the pots are sprayed with the selected aqueous acetone solution containing test compound in sufficient quantity to provide the equivalent of about 0.0125 to 0.4 kg per hectare of test compound per pot. The treated pots are then placed on greenhouse benches, watered and cared for in accordance with conventional greenhouse procedures. From 2 to 4 weeks after treatment, the tests are terminated and each pot is examined and rated according to the rating system set forth below.

[1] = tested on: Cassia obtusifolia (CASOB); experiment: Pre-emergence herbicidal evaluation, sicklepod
Source text: as §1

Stellaria media (STEME) = experiment: Pre-emergence herbicidal evaluation, chickweed
Source text: as §1

Hordeum vulgare (HORVW) = experiment: Post-emergence herbicidal evaluation, winter barley; conditions: rated 2 to 4 weeks after treatment
Description: (§2) [table] [table] […] These acetone solutions are diluted with water and the resulting formulations applied at dosage levels equivalent of about 0.03 to 0.4 kg per hectare of test compound per pot. After spraying the plants are placed on greenhouse benches and are cared for in the usual manner, commensurate with conventional greenhouse practices. From 2 to 4 weeks after treatment, the seedling plants are examined and rated according to the rating system provided above. A rating 0 indicates growth as untreated control, a rating 9 indicates death.

[2] = tested on: Cassia obtusifolia (CASOB); experiment: Post-emergence herbicidal evaluation, sicklepod; conditions: rated 2 to 4 weeks after treatment
Description: as §2

[3] = tested on: Alopecurus myosuroides (ALOMY); experiment: Post-emergence herbicidal evaluation, black grass; conditions: rated 2 to 4 weeks after treatment
Description: as §2

[4] = tested on: Digitaria sanguinalis (DIGSA); experiment: Post-emergence herbicidal evaluation, large crabgrass; conditions: rated 2 to 4 weeks after treatment
Description: as §2

[5] = tested on: Echinochloa grus galli (ECHCG); experiment: Post-emergence herbicidal evaluation, barnyard grass; conditions: rated 2 to 4 weeks after treatment
Description: as §2

Setaria viridis (SETVI) = experiment: Post-emergence herbicidal evaluation, green foxtail; conditions: rated 2 to 4 weeks after treatment
Description: as §2

[6] = tested on: Digitaria sanguinalis (DIGSA); experiment: Pre-emergence herbicidal evaluation, large crabgrass
Source text: as §1

Structure (SMILES)	ZEAMX rating (Zea mays (ZEAMX); dose 0.013 kg/ha)	ZEAMX rating (Zea mays (ZEAMX); dose 0.025 kg/ha)	ZEAMX rating (Zea mays (ZEAMX); dose 0.4 kg/ha)	STEME rating (Stellaria media (STEME); dose 0.013 kg/ha)	STEME rating (Stellaria media (STEME); dose 0.025 kg/ha)	STEME rating (Stellaria media (STEME); dose 0.1 kg/ha)	STEME rating (Stellaria media (STEME); dose 0.4 kg/ha)	HORVW rating (Hordeum vulgare (HORVW); dose 0.03 kg/ha)	HORVW rating (Hordeum vulgare (HORVW); dose 0.1 kg/ha)	HORVW rating (Hordeum vulgare (HORVW); dose 0.4 kg/ha)	ALOMY rating ([3]; dose 0.03 kg/ha)	ALOMY rating ([3]; dose 0.1 kg/ha)	ALOMY rating ([3]; dose 0.4 kg/ha)	DIGSA rating ([4]; dose 0.03 kg/ha)	DIGSA rating ([4]; dose 0.1 kg/ha)	DIGSA rating ([4]; dose 0.4 kg/ha)	ECHCG rating ([5]; dose 0.03 kg/ha)	ECHCG rating ([5]; dose 0.1 kg/ha)	ECHCG rating ([5]; dose 0.4 kg/ha)	SETVI rating (Setaria viridis (SETVI); dose 0.03 kg/ha)	also measured
Cc1cc(OC/C=C/C(F)(F)F)nc(Oc2cc(C(F)(F)F)nn2C)c1 [Example 1, (E)-2-(1-Methyl-3-trifluoromethylpyrazol-5-yloxy)-4-methyl-6-(4,4,4-trifluorobut-2-enyloxy)pyridine]	1 (1 - Trace effect)	2 (2 - Slight effect)	5 (5 - Definite injury)	5 (5 - Definite injury)	9 (9 - Complete kill)	9 (9 - Complete kill)	9 (9 - Complete kill)	3 (3 - Moderate effect)	5 (5 - Definite injury)	5 (5 - Definite injury)	6 (6 - Herbicidal effect)	8 (8 - Approaching complete kill)	8 (8 - Approaching complete kill)	7 (7 - Good herbicidal effect)	8 (8 - Approaching complete kill)	8 (8 - Approaching complete kill)	5 (5 - Definite injury)	8 (8 - Approaching complete kill)	8 (8 - Approaching complete kill)	5 (5 - Definite injury)	CASOB rating ([1]; dose 0.013 kg/ha): 0 (0 - No effect); CASOB rating ([1]; dose 0.025 kg/ha): 9 (9 - Complete kill); CASOB rating ([1]; dose 0.1 kg/ha): 9 (9 - Complete kill); CASOB rating ([1]; dose 0.4 kg/ha): 9 (9 - Complete kill); activity against Stellaria (Stellaria media (STEME)): superior activity; CASOB rating ([2]; dose 0.03 kg/ha): 5 (5 - Definite injury); CASOB rating ([2]; dose 0.1 kg/ha): 5 (5 - Definite injury); CASOB rating ([2]; dose 0.4 kg/ha): 5 (5 - Definite injury); SETVI rating (Setaria viridis (SETVI); dose 0.1 kg/ha): 8 (8 - Approaching complete kill); SETVI rating (Setaria viridis (SETVI); dose 0.4 kg/ha): 8 (8 - Approaching complete kill)
Cc1cc(OC=CCC(F)(F)F)nc(Oc2cc(C(F)(F)F)nn2C)c1 [Example 2, 2-(1-Methyl-3-trifluoromethylpyrazol-5-yloxy)-4-methyl-6-(4,4,4-trifluorobut-1-enyloxy)pyridine]	0 (0 - No effect)	1 (1 - Trace effect)	4 (4 - Injury)	0 (0 - No effect)	0 (0 - No effect)	9 (9 - Complete kill)	9 (9 - Complete kill)	3 (3 - Moderate effect)	3 (3 - Moderate effect)	3 (3 - Moderate effect)	2 (2 - Slight effect)	5 (5 - Definite injury)	8 (8 - Approaching complete kill)	7 (7 - Good herbicidal effect)	9 (9 - Complete kill)	9 (9 - Complete kill)	2 (2 - Slight effect)	5 (5 - Definite injury)	7 (7 - Good herbicidal effect)	4 (4 - Injury)	ZEAMX rating (Zea mays (ZEAMX); dose 0.1 kg/ha): 2 (2 - Slight effect); CASOB rating ([1]; dose 0.013 kg/ha): 0 (0 - No effect); CASOB rating ([1]; dose 0.025 kg/ha): 1 (1 - Trace effect); CASOB rating ([1]; dose 0.1 kg/ha): 9 (9 - Complete kill); CASOB rating ([1]; dose 0.4 kg/ha): 9 (9 - Complete kill); SETVI rating (Setaria viridis (SETVI); dose 0.1 kg/ha): 8 (8 - Approaching complete kill); SETVI rating (Setaria viridis (SETVI); dose 0.4 kg/ha): 8 (8 - Approaching complete kill)
COc1cc(OCC(F)(F)C(F)F)nc(Oc2cc(C(F)(F)F)nn2C)c1 [Example 4, 2-(1-Methyl-3-trifluoromethylpyrazol-5-yloxy)-4-methoxy-6-(2,2,3,3-tetrafluoropropyloxy)pyridine]	1 (1 - Trace effect)	1 (1 - Trace effect)	5 (5 - Definite injury)	4 (4 - Injury)	6 (6 - Herbicidal effect)	9 (9 - Complete kill)	9 (9 - Complete kill)	3 (3 - Moderate effect)	3 (3 - Moderate effect)	5 (5 - Definite injury)	3 (3 - Moderate effect)	6 (6 - Herbicidal effect)	8 (8 - Approaching complete kill)	5 (5 - Definite injury)	7 (7 - Good herbicidal effect)	8 (8 - Approaching complete kill)	6 (6 - Herbicidal effect)	8 (8 - Approaching complete kill)	9 (9 - Complete kill)	6 (6 - Herbicidal effect)	ZEAMX rating (Zea mays (ZEAMX); dose 0.1 kg/ha): 3 (3 - Moderate effect); CASOB rating ([1]; dose 0.013 kg/ha): 3 (3 - Moderate effect); CASOB rating ([1]; dose 0.025 kg/ha): 4 (4 - Injury); CASOB rating ([1]; dose 0.1 kg/ha): 7 (7 - Good herbicidal effect); CASOB rating ([1]; dose 0.4 kg/ha): 9 (9 - Complete kill); SETVI rating (Setaria viridis (SETVI); dose 0.1 kg/ha): 8 (8 - Approaching complete kill); SETVI rating (Setaria viridis (SETVI); dose 0.4 kg/ha): 9 (9 - Complete kill)
CC(Cl)=CCOc1cc(C)cc(Oc2cc(C(F)(F)F)nn2C)n1 [Example 11]	1 (1 - Trace effect)	2 (2 - Slight effect)	5 (5 - Definite injury)	8 (8 - Approaching complete kill)	9 (9 - Complete kill)	9 (9 - Complete kill)	9 (9 - Complete kill)	3 (3 - Moderate effect)	4 (4 - Injury)	4 (4 - Injury)	6 (6 - Herbicidal effect)	8 (8 - Approaching complete kill)	8 (8 - Approaching complete kill)	9 (9 - Complete kill)	9 (9 - Complete kill)	9 (9 - Complete kill)	8 (8 - Approaching complete kill)	8 (8 - Approaching complete kill)	8 (8 - Approaching complete kill)	5 (5 - Definite injury)	ZEAMX rating (Zea mays (ZEAMX); dose 0.1 kg/ha): 3 (3 - Moderate effect); activity against Stellaria (Stellaria media (STEME)): superior activity; DIGSA rating ([6]; dose 0.013 kg/ha): 8 (8 - Approaching complete kill); DIGSA rating ([6]; dose 0.025 kg/ha): 8 (8 - Approaching complete kill); DIGSA rating ([6]; dose 0.1 kg/ha): 9 (9 - Complete kill); DIGSA rating ([6]; dose 0.4 kg/ha): 9 (9 - Complete kill); SETVI rating (Setaria viridis (SETVI); dose 0.1 kg/ha): 6 (6 - Herbicidal effect); SETVI rating (Setaria viridis (SETVI); dose 0.4 kg/ha): 8 (8 - Approaching complete kill)
Cc1cc(OCC=C(Cl)Cl)nc(Oc2cc(C(F)(F)F)nn2C)c1 [Example 12]	0 (0 - No effect)	2 (2 - Slight effect)	5 (5 - Definite injury)	6 (6 - Herbicidal effect)	8 (8 - Approaching complete kill)	9 (9 - Complete kill)	9 (9 - Complete kill)	3 (3 - Moderate effect)	5 (5 - Definite injury)	6 (6 - Herbicidal effect)	8 (8 - Approaching complete kill)	9 (9 - Complete kill)	9 (9 - Complete kill)	8 (8 - Approaching complete kill)	9 (9 - Complete kill)	9 (9 - Complete kill)	9 (9 - Complete kill)	9 (9 - Complete kill)	9 (9 - Complete kill)	9 (9 - Complete kill)	ZEAMX rating (Zea mays (ZEAMX); dose 0.1 kg/ha): 3 (3 - Moderate effect); DIGSA rating ([6]; dose 0.013 kg/ha): 9 (9 - Complete kill); DIGSA rating ([6]; dose 0.025 kg/ha): 9 (9 - Complete kill); DIGSA rating ([6]; dose 0.1 kg/ha): 9 (9 - Complete kill); DIGSA rating ([6]; dose 0.4 kg/ha): 9 (9 - Complete kill); CASOB rating ([2]; dose 0.03 kg/ha): 8 (8 - Approaching complete kill); CASOB rating ([2]; dose 0.1 kg/ha): 8 (8 - Approaching complete kill); CASOB rating ([2]; dose 0.4 kg/ha): 8 (8 - Approaching complete kill); SETVI rating (Setaria viridis (SETVI); dose 0.1 kg/ha): 9 (9 - Complete kill); SETVI rating (Setaria viridis (SETVI); dose 0.4 kg/ha): 9 (9 - Complete kill)
